One series in a line: physchem. The conditions noted are these: for solubility: aqueous buffer. An excerpt: The active agent may be any active agent suitable to treat the desired condition. […] Examples include, but are not limited to, acetazolamide, dorzolamide HCl, timolol maleate, and ethacrynic acid sodium salt.
The conditions of series [1]: topical ocular use; cited from earlier work.

In brackets after ≈: the same amount, converted by molar mass. Where a name gives a salt, the structure may show the parent alone.

On to `O=C(O)CCCCCC[C@@H]1[C@@H](CC[C@@H](O)c2cc3ccccc3s2)[C@H](O)C[C@@H]1O` [AR-102 free acid, 7-((1R,2R,3R,5S)-2-((R)-3-(benzo[b]thiophen-2-yl)-3-hydroxypropyl)-3,5-dihydroxycyclopentyl)heptanoic acid], for which the solubility class result in the series “physchem” is recorded as “moderate solubility”.
Still for that read-out and setting: to `C[C@@H](N)c1ccc(C(=O)Nc2ccnc3[nH]ccc23)cc1` [Y-39983 Free Base] belongs “Moderately Soluble”.
What is called solubility is how much of the substance goes into solution per volume. Low values mean a poorly soluble substance, high ones a readily soluble substance. With `CC(=O)Nc1nnc(S(N)(=O)=O)s1` [acetazolamide], in “physchem”, the solubility was more than 1000 µg/mL.
Regarding `CCNC(=O)CCC/C=C\C[C@@H]1[C@@H](/C=C/[C@@H](O)CCc2ccccc2)[C@H](O)C[C@@H]1O` [bimatoprost], the solubility class entry in the series “physchem” is “low solubility”.
For the molecule `Brc1c(NC2=NCCN2)ccc2nccnc12` [brimonidine free base], the “solubility in PBS” value in the series “physchem” worked out at 360 µg/mL (≈ 1230 µM).
On to `C[C@@H]1C[C@H]2[C@@H]3CCC4=CC(=O)C=C[C@]4(C)[C@@]3(F)[C@@H](O)C[C@]2(C)[C@@]1(O)C(=O)COP(=O)(O)O` [dexamethasone sodium phosphate], for which the solubility class result in “physchem” is “high solubility”.
On to `C[C@@H]1C[C@H]2[C@@H]3CCC4=CC(=O)C=C[C@]4(C)[C@@]3(F)[C@@H](O)C[C@]2(C)[C@@]1(O)C(=O)CO` [dexamethasone], for which, in the series “physchem”, the solubility class result is given as “low solubility” and the solubility was less than 300 µg/mL.
In the same order, the values of `CCN[C@H]1C[C@H](C)S(=O)(=O)c2sc(S(N)(=O)=O)cc21` [dorzolamide HCl] are “high solubility” and more than 1000 µg/mL.
Taken in the same sequence, the figures for `C=C(CC)C(=O)c1ccc(OCC(=O)O)c(Cl)c1Cl` [ethacrynic acid sodium salt] were “high solubility” and more than 1000 µg/mL.
Regarding `O=C(O)CCC/C=C\C[C@@H]1[C@@H](CC[C@@H](O)CCc2ccccc2)[C@H](O)C[C@@H]1O` [latanoprost free acid], the “solubility in PBS” value in the series “physchem” was determined as 800 µg/mL (≈ 2050 µM).
For `CC(C)OC(=O)CCC/C=C\C[C@@H]1[C@@H](CC[C@@H](O)CCc2ccccc2)[C@H](O)C[C@@H]1O` [latanoprost isopropyl ester], the topical effective concentration in series [1] is reported as 0.05 milligrams/mL. In “physchem”, the solubility class result was “low solubility” and the solubility is less than 300 µg/mL.
In “physchem”, `CC[C@H](C)C(=O)O[C@H]1C[C@@H](C)C=C2C=C[C@H](C)[C@H](CC[C@@H]3C[C@@H](O)CC(=O)O3)[C@H]21` [lovastatin] came in with a solubility of less than 300 µg/mL.
As to `CC(C)(C)NC[C@H](O)COc1nsnc1N1CCOCC1` [timolol maleate], in “physchem”, the solubility class result is given as “high solubility” and the solubility was more than 1000 µg/mL.
In the same order, the values of `CC(C)OC(=O)CCC/C=C\C[C@@H]1[C@@H](/C=C/[C@@H](O)COc2cccc(C(F)(F)F)c2)[C@H](O)C[C@@H]1O` [travoprost isopropyl ester] are “low solubility” and less than 300 µg/mL.
Take brimonidine tartrate: the solubility class result in the series “physchem” (PBS at pH=7.2-7.4, listed as brimonidine D-tartrate salt) is given as “high solubility”. Also, the solubility in water in “physchem” (in water at pH 7.7) came to 600 µg/mL.

The record behind these values is patent publication US8765166B2, “Drug delivery devices for delivery of ocular therapeutic agents” (Aerie Pharmaceuticals, Inc., priority 2010, dated 2014).
